Data taken from ChEMBL document CHEMBL1128032, “Synthesis and antiviral activity of amino acid esters of ribavirin” (1994).

How the values were obtained:
Newcastle disease virus [1] = test: Antiviral effect against newcastle disease virus strain Russeff (NDV) by the difference between zone of plaque inhibition and zone of cytotoxicity; (21-40 mm); format: functional, avian paramyxovirus 1
Influenza A virus [2] = test: Antiviral effect against influenza virus A strain H7N7 (FPV) by the difference between zone of plaque inhibition and zone of cytotoxicity; (11-12 mm); format: functional, unidentified influenza virus
Suid alphaherpesvirus 1 [3] = test: Antiviral effect against pseudorabies virus strain Anjeszky A2 by the difference between zone of plaque inhibition and zone of cytotoxicity; (21-40 mm); format: functional
Influenza A virus [4] = test: Antiviral activity against influenza virus A strain H7N7 (FPV) was determined as zone of plaque inhibition; format: functional, unidentified influenza virus
Suid alphaherpesvirus 1 [5] = test: Antiviral effect against pseudorabies virus strain Anjeszky A2 by the difference between zone of plaque inhibition and zone of cytotoxicity; format: functional
Newcastle disease virus [6] = test: Antiviral activity against newcastle disease virus strain Russeff (NDV) was determined as zone of cytotoxicity; format: functional, avian paramyxovirus 1; parameters: unit not given here
Suid alphaherpesvirus 1 [7] = test: Antiviral activity against pseudorabies virus strain Anjeszky A2 was determined as zone of cytotoxicity; format: functional; parameters: unit not given here
Influenza A virus [8] = test: Antiviral activity against influenza virus A strain H7N7 (FPV) was determined as zone of cytotoxicity; format: functional, unidentified influenza virus
Newcastle disease virus [9] = test: Antiviral activity against newcastle disease virus strain Russeff (NDV) was determined as zone of plaque inhibition; format: functional, avian paramyxovirus 1
Newcastle disease virus [10] = test: Antiviral effect against newcastle disease virus strain Russeff (NDV) by the difference between zone of plaque inhibition and zone of cytotoxicity; format: functional, avian paramyxovirus 1
Suid alphaherpesvirus 1 [11] = test: Antiviral activity against pseudorabies virus strain Anjeszky A2 was determined as zone of plaque inhibition; format: functional; parameters: unit not given here
Influenza A virus [12] = test: Antiviral effect against influenza virus A strain H7N7 (FPV) by the difference between zone of plaque inhibition and zone of cytotoxicity; format: functional, unidentified influenza virus
Newcastle disease virus [13] = test: Antiviral effect against newcastle disease virus strain Russeff (NDV) by the difference between zone of plaque inhibition and zone of cytotoxicity; (6-10 mm); format: functional, avian paramyxovirus 1
Influenza A virus [14] = test: Antiviral effect against influenza virus A strain H7N7 (FPV) by the difference between zone of plaque inhibition and zone of cytotoxicity; (6-10 mm); format: functional, unidentified influenza virus
Newcastle disease virus [15] = test: Antiviral effect against newcastle disease virus strain Russeff (NDV) by the difference between zone of plaque inhibition and zone of cytotoxicity; (11-12 mm); format: functional, avian paramyxovirus 1
Suid alphaherpesvirus 1 [16] = test: Antiviral effect against pseudorabies virus strain Anjeszky A2 by the difference between zone of plaque inhibition and zone of cytotoxicity; (6-10 mm); format: functional

SMILES	Activity (Newcastle disease virus [1]) [mM]	Activity (Influenza A virus [2]) [mM]	Activity (Suid alphaherpesvirus 1 [3]) [mM]	Activity (Influenza A virus [4]) [mm]	Activity (Suid alphaherpesvirus 1 [5]) [mm]	Activity (Newcastle disease virus [6])	Activity (Suid alphaherpesvirus 1 [7])	Activity (Influenza A virus [8]) [mm]	Activity (Newcastle disease virus [9]) [mm]	Activity (Newcastle disease virus [10]) [mM]	Activity (Suid alphaherpesvirus 1 [11])	Activity (Influenza A virus [12]) [mM]	Activity (Newcastle disease virus [13]) [mM]	Activity (Influenza A virus [14]) [mM]	Activity (Newcastle disease virus [15]) [mM]	Activity (Suid alphaherpesvirus 1 [16]) [mM]
NC(=O)c1ncn([C@@H]2O[C@H](CO)[C@@H](O)[C@H]2O)n1 [RIBAVIRIN]	40	12	40	–	–	–	–	–	–	–	–	–	–	–	–	–
CC(C)(C)OC(=O)N[C@@H](Cc1c[nH]c2ccccc12)C(=O)OCC1OC(n2cnc(C(N)=O)n2)C2OC(C)(C)OC12 (stereo partly drawn)	–	–	–	15.7	5	10.7	9	10.7	0	5	0	5	–	–	–	–
CC(C)(C)OC(=O)N1CCC[C@H]1C(=O)OCC1OC(n2cnc(C(N)=O)n2)C2OC(C)(C)OC12 (stereo partly drawn)	–	–	–	22.8	5	8.7	10	14	16.5	–	0	–	10	10	–	–
CC(C)C[C@H](NC(=O)OC(C)(C)C)C(=O)OCC1OC(n2cnc(C(N)=O)n2)C2OC(C)(C)OC12 (stereo partly drawn)	–	–	–	16.8	5	16	16	8.3	28	–	18	–	–	10	12	–
CC(C)(C)OC(=O)N[C@@H](Cc1ccccc1)C(=O)OCC1OC(n2cnc(C(N)=O)n2)C2OC(C)(C)OC12 (stereo partly drawn)	–	12	–	19.3	5	16.5	16.5	9.2	0	5	0	–	–	–	–	–
CC(C)(C)OC(=O)NCC(=O)OC[C@H]1O[C@@H](n2cnc(C(N)=O)n2)[C@@H]2OC(C)(C)O[C@@H]21	–	–	–	0	–	19	15	10.2	31.5	–	23.5	5	–	–	12	10
